Publication PMC11898701, “Evaluating Therapeutic Efficacy of the Vascular Disrupting Agent OXi8007 Against Kidney Cancer in Mice” (Cancers, 2025)

How the values were obtained:
[1] = system: orthotopic XP258 human tumor xenografts; experiment: Long-term therapy of XP258 human tumor xenografts; format: in vivo, mouse; conditions: XP258 in NOD/SCID mice; OXi8007 250 mg/kg IP twice weekly, cabozantinib 3 mg/kg oral daily
Description: The animal procedures were approved by the UT Southwestern Medical Center Institutional Animal Care and Use Committee under APNs 2017-102152 and 2018-102344-CORE. Renca-luc orthotopic tumors were induced by inserting tumor tissue (~1 mm^3) harvested from a donor mouse into the right kidney of syngeneic BALB/c mice (age 8 weeks, male and female; Envigo, Indianapolis, IN, USA), as described previously. Orthotopic XP258 tumors (derived from a patient with pT3aN0M1 clear cell RCC) were obtained from the UT Southwestern Kidney Cancer SPORE [53, 54] and maintained by serial passage. Tumors were induced by inserting tumor tissues from a donor tumor into the left kidney capsule of female NOD/SCID mice (Envigo).
(§1) OXi8007, synthesized by the Pinney Laboratory using published procedures, was dissolved in saline, verified to be in the pH range 7.3 to 7.5, and dosed at 250 mg/kg (IP). Cabozantinib (in PEG400 and ultrapure H2O (Milli-Q)) was administered at 3 mg/kg by oral gavage. Anti-PD-1 (10 mg/kg, Bio X Cell, Lebanon, NH, USA) and anti-CTLA-4 (5 mg/kg, Bio X Cell, Lebanon, NH) solutions were administered (IP) on the day before OXi8007 […].
We evaluated the longitudinal effects of OXi8007 alone and in combination with drugs currently favored for treating kidney cancer. For Renca-luc tumor-bearing mice, BLI was performed at least once a week to estimate tumor size, and mice were weighed weekly to adjust the dose as needed. Two treatment cohorts examined syngeneic orthotopic Renca-luc tumors in male BALB/c mice. Treatment started when the tumors reached about 1 × 10^6 photons/s peak total flux on BLI. The first cohort examined OXi8007 with cabozantinib. Mice were divided into four groups. Mice were assigned to groups as soon as there were sufficient to add the same numbers of animals to each group. The specific assignment was defined using the random number function in Excel. As such, each group included both faster- and slower-growing tumors. […]

[2] = system: orthotopic Renca-luc tumors; experiment: Long-term therapy with OXi8007 and/or cabozantinib; format: in vivo, mouse
Method: as §1
We evaluated the longitudinal effects of OXi8007 alone and in combination with drugs currently favored for treating kidney cancer. For Renca-luc tumor-bearing mice, BLI was performed at least once a week to estimate tumor size, and mice were weighed weekly to adjust the dose as needed. Two treatment cohorts examined syngeneic orthotopic Renca-luc tumors in male BALB/c mice. Treatment started when the tumors reached about 1 × 10^6 photons/s peak total flux on BLI. The first cohort examined OXi8007 with cabozantinib. Mice were divided into four groups. Mice were assigned to groups as soon as there were sufficient to add the same numbers of animals to each group. The specific assignment was defined using the random number function in Excel. […] The second cohort was treated with CKIs and OXi8007 using four groups: Group 5 (OXi8007 + anti-PD-1 (10 mg/kg) + anti-CTLA-4 (5 mg/kg); n = 4), Group 6 (saline + anti-PD-1+ anti-CTLA-4; n = 3), Group 7 (saline + anti-PD-1; n = 3), and Group 8 (saline + anti-CTLA-4; n = 4). CKI antibodies were administered thrice weekly (M, W, F) for the first two weeks after the first treatment with OXi8007, which was administered twice weekly. […] Initial tumor growth was confirmed by palpation, and the mice were assigned to groups such that the first mouse with a confirmed tumor was assigned to Group 5, next to Group 6, etc., ensuring that all groups had both faster- and slower-growing tumors. […] Tumor size (BLI signal) and mouse body weights were compared using an ANOVA and multiple comparisons at a significance level of p < 0.05. Kaplan–Meier survival curves were compared using a non-parametric log-rank test using SAS software (SAS Institute Inc., SAS Viya for learners 4, Cary, NC, USA).

[3] = system: subcutaneous Renca tumors; parameters: method as in PMID 33954115; conditions: 10 mg/kg, day 14; cited from earlier work

COc1cc2nccc(Oc3ccc(NC(=O)C4(C(=O)Nc5ccc(F)cc5)CC4)cc3)c2cc1OC [cabozantinib, reference compound]
Survival versus controls [1]: significantly enhanced survival
Body weight versus untreated control mice ([2]; Renca-luc BALB/c mice, over course of treatment): significant weight loss
Tumor growth delay (BLI) ([2]; Renca-luc, versus control): significant tumor growth delay
Median survival time ([2]; Renca-luc, OXi8007 250 mg/kg IP twice weekly, cabozantinib 3 mg/kg oral daily): 64 days
Tumor size reduction [3]: 50%
